Assay results taken from US20160046616A1, “NRF2 SMALL MOLECULE INHIBITORS FOR CANCER THERAPY” (THE JOHNS HOPKINS UNIVERSITY, priority 2013, published 2016).
Where two headings read alike, the source gives them in different places.

Tests used:
[1] = system: H1437 NRF2-ARE-Fluc stable cell line; experiment: H1437 Nrf2 assay: NRF2-ARE firefly luciferase reporter gene assay; type: cell-based; conditions: read-out: Potency of inhibition, H1437
[2] = system: A549 NRF2-ARE-Fluc stable cell line; experiment: A549 Nrf2 assay: NRF2-ARE firefly luciferase reporter gene assay; type: cell-based; conditions: read-out: Potency of inhibition, A549
In short: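 A549 cells (Keap1 loss-of-function, constitutive NRF2) stably carrying ARE-driven firefly luciferase; compound treatment 18–24 h at 37 °C, 0.46% DMSO final.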

[3] = Homo sapiens, NCI-H1437, H1437 NRF2-ARE-Fluc stable cell line

SMILES | IC50 [1, 3] | IC50 ([2]; Homo sapiens) | IC50 ([1]; H1437 NRF2-ARE-Fluc stable cell line) | IC50 [2]
O=C(Nc1ccc(S(=O)(=O)N2CCCCC2)cc1)c1ccc(CN2CCc3ccccc3C2)cc1 [Compound 38] | < 5 µM | < 5 µM |  | 
Cc1ccccc1C(=O)N1CCc2cc(-c3nc(NC(=O)CN4CCOCC4)sc3C)ccc21 [Compound 77] | 5 to 25 µM | 5 to 25 µM |  | 
Cc1ccccc1C(=O)N1CCc2cc(-c3nc(NC(=O)Cc4ccc(F)c(F)c4)sc3C)ccc21 [Compound 12] | < 5 µM | < 5 µM |  | 
O=C(Nc1ncc(Cc2ccc(C(F)(F)F)cc2)s1)c1cccc(-c2ccccc2)c1 [Compound 59] | > 25 µM | 5 to 25 µM |  | 
COc1ccc(CC(=O)Nc2nc(-c3ccc4c(c3)CCN4C(=O)c3ccccc3C)c(C)s2)cc1 [Compound 7] | < 5 µM | < 5 µM |  | 
Cc1cnc(NC(=O)c2ccc(-c3cccc([N+](=O)[O-])c3)o2)s1 [Compound 67] | > 25 µM | 5 to 25 µM |  | 
Cc1ccccc1C(=O)N1CCc2cc(-c3nc(NC(=O)Cc4ccc5c(c4)OCCO5)sc3C)ccc21 [Compound 5] | < 5 µM | 5 to 25 µM |  | 
Cc1ccccc1C(=O)N1CCc2cc(-c3cccc(NC(=O)Cc4ccc5c(c4)OCO5)n3)ccc21 [Compound 28] | > 25 µM | 5 to 25 µM |  | 
Cc1ccc(CC(=O)Nc2nc(-c3ccc4c(c3)CCN4C(=O)c3ccccc3C)c(C)s2)cc1C [Compound 10] | > 25 µM | 5 to 25 µM |  | 
O=C(Nc1ccccc1)c1ccc(CN2CCc3ccccc3C2)cc1 [compound 143] | > 25 µM | 5 to 25 µM |  | 
Cc1ccccc1C(=O)N(C)c1ccc(-c2cccc(NC(=O)Cc3ccccc3)n2)cc1 [Compound 68] | 5 to 25 µM | 5 to 25 µM |  | 
Cc1cccc(C(=O)N2CCc3cc(-c4nc(NC(=O)Cc5ccc6c(c5)OCO6)sc4C)ccc32)c1 [Compound 29] | 5 to 25 µM | > 25 µM |  | 
CNc1ccc(-c2cccc(NC(=O)Cc3ccccc3)n2)cc1 [Compound 64, N-(6-(4-(methylamino)phenyl)pyridin-2-yl)-2-phenylacetamide] | > 25 µM | 5 to 25 µM |  | 
Cc1ccc(NC(=O)c2ccc(S(=O)(=O)N(C)c3ccccc3)cc2)cc1S(=O)(=O)N1CCOCC1 [Compound 46] | 5 to 25 µM | < 5 µM |  | 
Cc1sc(NC(=O)Cc2ccc3c(c2)OCO3)nc1-c1ccc2c(c1)CCN2C(=O)C1CCCCC1 [Compound 25] | < 5 µM | 5 to 25 µM |  | 
Cc1ccccc1C(=O)N1CCc2cc(-c3nc(NC(=O)CC4CCCCC4)sc3C)ccc21 [Compound 79] | 5 to 25 µM | < 5 µM |  | 
CCN(CC)C(=O)c1ccc(S(=O)(=O)N2CCC(c3nc4ccccc4s3)CC2)cc1 [Compound 37] | < 5 µM | < 5 µM |  | 
O=C(Cc1ccccc1)Nc1cccc(-c2ccc(N3CCCCC3)cc2)n1 [Compound 63] | > 25 µM | > 25 µM |  | 
O=C(Nc1ncc(Cc2cccc(C(F)(F)F)c2)s1)c1ccc(-c2cccc([N+](=O)[O-])c2)o1 [Compound 20] | < 5 µM | 5 to 25 µM |  | 

The next lines start with the values.

IC50 [1, 3] | IC50 ([2]; Homo sapiens) | IC50 ([1]; H1437 NRF2-ARE-Fluc stable cell line) | IC50 [2] | SMILES
> 25 µM | > 25 µM |  |  | O=C(Nc1ncc(Cc2ccc(C(F)(F)F)cc2)s1)c1ccn(Cc2ccccn2)n1 [Compound 192]
5 to 25 µM | 5 to 25 µM |  |  | O=C(Nc1ncc(Cc2ccc(C(F)(F)F)cc2)s1)c1ccc(Br)o1 [Compound 98]
5 to 25 µM | < 5 µM |  |  | Cc1ccccc1C(=O)N1CCc2cc(-c3nc(NC(=O)CCc4ccccc4)sc3C)ccc21 [Compound 210]
> 25 µM | < 5 µM |  |  | CCc1ccccc1C(=O)N1CCc2cc(-c3nc(NC(=O)Cc4ccc5c(c4)OCO5)sc3C)ccc21 [Compound 113]
> 25 µM | 5 to 25 µM |  |  | O=C(Nc1ncc(-c2ccccc2)s1)c1ccc(-c2cccc([N+](=O)[O-])c2)o1 [Compound 82]
 |  | > 25 µM | < 5 µM | Cc1ccccc1S(=O)(=O)N1CCc2cc(-c3nc(NC(=O)Cc4cccc(F)c4)sc3C)ccc21 [Compound 126]
5 to 25 µM | 5 to 25 µM |  |  | Cc1ccccc1C(=O)N1CCc2cc(-c3nc(NC(=O)Cc4cccc(OCCOCCOCCN)c4)sc3C)ccc21 [Compound 238, 2-(3-(2-(2-(2-aminoethoxy)ethoxy)ethoxy)phenyl)-N-(5-methyl-4-(1-(2-methylbenzoyl)indolin-5-yl)thiazol-2-yl)acetamide]
5 to 25 µM | 5 to 25 µM |  |  | O=C(Nc1ncc(CN2CCOCC2)s1)c1ccc(-c2cccc([N+](=O)[O-])c2)o1 [Compound 81]
< 5 µM | < 5 µM |  |  | Cc1ccccc1CC(=O)Nc1nc(-c2ccc3c(c2)CCN3S(=O)(=O)c2ccccc2C)c(C)s1 [Compound 128]
< 5 µM | 5 to 25 µM |  |  | O=C(Nc1ncc(Cc2ccc(C(F)(F)F)cc2)s1)c1ccn(CCN2CCOCC2)n1 [Compound 231]
5 to 25 µM | 5 to 25 µM |  |  | Cc1ccccc1C(=O)N1CCc2cc(-c3nc(NC(=O)CC4CCOCC4)sc3C)ccc21 [Compound 84]
< 5 µM | < 5 µM |  |  | O=C(Nc1ncc(Cc2ccccc2F)s1)c1ccn(-c2ccccc2)n1 [Compound 215]
< 5 µM | < 5 µM |  |  | O=C(Nc1ccc(Cl)c(S(=O)(=O)N2CCOCC2)c1)c1ccc(S(=O)(=O)N2CCOCC2)cc1 [compound 55]
> 25 µM | < 5 µM |  |  | O=C(Nc1ccc(S(=O)(=O)N2CCOC(c3ccccc3)C2)cc1)c1ccc(CN2CCc3ccccc3C2)cc1 (stereo not drawn) [compound 171]
< 5 µM | < 5 µM |  |  | O=C(Nc1ccc(S(=O)(=O)N2CCOCC2)cc1)c1ccc(CN2CCN(c3ccccc3)CC2)cc1 [Compound 203]
< 5 µM | < 5 µM |  |  | CC1CN(S(=O)(=O)c2ccc(NC(=O)c3ccc(CN4CCc5ccccc5C4)cc3)cc2)CCO1 (stereo not drawn) [compound 169]
< 5 µM | < 5 µM |  |  | Cc1ccccc1S(=O)(=O)N1CCc2cc(-c3nc(NC(=O)Cc4ccncc4)sc3C)ccc21 [Compound 136]
5 to 25 µM | < 5 µM |  |  | O=C(Nc1ncc(Cc2ccc(C(F)(F)F)cc2)s1)c1ccn(-c2ccccc2)n1 [Compound 110]
5 to 25 µM | < 5 µM |  |  | COc1cccc(Cc2cnc(NC(=O)c3ccn(-c4ccccc4)n3)s2)c1 [Compound 219]
5 to 25 µM | 5 to 25 µM |  |  | Cc1ccccc1C(=O)N1CCc2cc(-c3ccc(NC(=O)Cc4ccccc4)cn3)ccc21 [Compound 101]
< 5 µM | < 5 µM |  |  | Cc1sc(NC(=O)Cc2ccc3c(c2)OCO3)nc1-c1ccc2c(c1)CCN2C(=O)c1cccn1C [Compound 184]
< 5 µM | < 5 µM |  |  | CCN(CC)S(=O)(=O)c1ccc(NC(=O)c2ccc(CN3CCc4ccccc4C3)cc2)cc1 [compound 153]
> 25 µM | > 25 µM |  |  | O=C(Nc1nc2cc(C(F)(F)F)ccc2s1)c1ccc(-c2cccc([N+](=O)[O-])c2)o1 [Compound 111]
> 25 µM | < 5 µM |  |  | Cc1sc(NC(=O)Cc2ccc3c(c2)OCO3)nc1-c1ccc2c(c1)CCN2C(=O)c1ccccc1OC(F)(F)F [Compound 114]
< 5 µM | < 5 µM |  |  | Cc1sc(NC(=O)Cc2ccc3c(c2)OCO3)nc1-c1ccc2c(c1)CCN2C(=O)c1ccccc1F [Compound 115]
> 25 µM | 5 to 25 µM |  |  | Cc1sc(NC(=O)Cc2ccc3c(c2)OCO3)nc1-c1ccc2c(c1)CCN2C(=O)CN(C)C [Compound 180]
